This is an account of results in patent US20060014231A1, “Methods and compositions to promote bone homeostasis” (priority 2004, published 2006).

Entries after “also recorded” stand apart in the source; their conditions may differ.

The test system of experiment [1] is calvarial skull bones (hemicalvaria). In words: Calvarial skull assay (bone organ culture, weight and histological readout). The arrangement: species or system CD1 mice. As for the experimental part:
CD1 pups are harvested around birth from CD1 female mice (received from Janvier (Le Genest St Isle, France) when they were 11 days pregnant). Pups are decapitated and the calvarial skull is dissected and split into 2 hemicalvaria. Hemicalvaria are blotted using sterile gauze, weighed and cultured in 24 well plates (MEMalpha or BGJb-Fitton-Jackson medium containing 50 μg/ml L-ascorbic acid (Sigma, A-4034), 5 mM β-glycerophosphate (Sigma, G-9891) and Penicillin-Streptomycin (Invitrogen Cat # 15140-122)). Small molecules (ligands, agonists, antagonists) are tested in at least three-fold at a minimum of 3 concentrations. Each small molecule is added to the medium on day 0 and added again when refreshing the medium (every 2-3 days). Three to 16 days after the start of the experiment, skulls are weighed again after blotting them dry using sterile gauze. The weight difference is calculated, expressed as percent weight change and the mean and standard deviations (SD) are calculated for the triplicate measurements. Data are analyzed using the Student's t-test.
The formation of new osteoid is analyzed histologically as follows: hemicalvaria are fixed in 10% buffered formalin for at least 2 days, decalcified in 10% EDTA overnight, processed through graded alcohols and embedded in paraffin wax. Three to 10 μm sections are prepared of the calvaria and stained with hematoxylin and eosin (H&E). Healthy cells, dead cells, old and new bone, and collagen are identified by their distinctive morphology and colouring observed after H&E staining. The surfaces taken by these are measured stereologically (μm^2 readout) and termed Osteoblast area, Debris area, Native and New bone area, Collagen area and Total area (sum of the previous 5 areas), respectively. In addition, the thickness (μm readout) is measured at 8 positions, evenly spaced over the section.
The histological readout of the calvarial skull assay is developed using known osteogenic agents. Hemicalvaria were treated with recombinant human parathyroid hormone (rhPTH).
T0901317 is added to the culture medium of the dissected hemicalvaria at the day of dissection at several doses (19.5, 78.1 and 313 nM), in fourfold. The concentration of the solvent (vehicle), DMSO, is fixed at a final concentration of 0.05%. The medium, containing T0901317 or vehicle control is refreshed every 2-3 days. Hemicalvaria are harvested 7 days after the initiation of the experiment and subjected to the histological analysis described above.

Experiment [2] has as its system RUNX2. In words: DN-RUNX2 assay: interference with up-regulation of AP activity in MPCs. The following applies: Ad-NR1H3 + T0901317 plus Ad-DN-RUNX2 versus Ad-luciferase, 6 days post infection. Type of experiment: cell-based, human. The source says:
Since the osteogenic activity of BMP2 is known to work through RUNX2, Ad-BMP2 and Ad-DN-RUNX2 viruses are used to develop the DN-RUNX2 assay. The human full-length RUNX2 cDNA is obtained by RT-PCR from total RNA extracted from MPCs. The 5′ part of the cDNA encoding amino acids 1-214 is obtained by PCR from the cloned RUNX2 cDNA and subcloned in an adenoviral adapter plasmid. The identity of the cloned fragment is verified by sequencing. This plasmid is used to generate an adenoviral stock, as described in WO 9964582.
MPCs are seeded at 1000 cells/well in a 384 well plate and infected the next day with adenoviruses encoding hCAR (MOI 250), Ad-BMP2 (MOIs 6000, 2000, 666) and one of Ad-DN-RUNX2 or Ad-luciferase (MOIs 2000 or 666). Alkaline phosphatase activity is read 6 days post infection.
The DN-RUNX2 assay is used to test the involvement of RUNX2 in the up-regulation of AP activity by NR5A2, NR1H3, and ESRRG. MPCs are seeded at 1000 cells/well in a 384 well plate and are infected the next day with adenoviruses encoding hCAR (MOI 250), Ad-BMP2, Ad-ESRRG, Ad-NR5A2, Ad-NR1H3 (MOIs 6000, 2000, 666) and one of Ad-DN-RUNX2 or Ad-luciferase (MOI 1000 or MOIs 2000 and 666) (see FIG. 19(C)). Alkaline phosphatase activity is read 6 days post infection and raw data are analysed.

Where [3] appears, read: 19.5, 78.1 and 313 nM, 7 days, H&E histology.
[4] abbreviates: 19.5, 78.1 and 313 nM, 7 days, H&E histology, versus 0.05% DMSO.

`O=S(=O)(c1ccccc1)N(CC(F)(F)F)c1ccc(C(O)(C(F)(F)F)C(F)(F)F)cc1` [T0901317]: in experiment [1] (setting [3]), the thickness result is given as “Dose-response activity” and the “total area (sum of all areas measured)” value is reported as “Dose-response activity”. Further, in experiment [1] (setting [4]), the collagen area result is “Statistically significant increases”, the new bone area entry is “Statistically significant increases” and the osteoblast area entry is given as “Statistically significant increases; also recorded: Dose-response activity”. In addition, the “weight change of calvarial skull explants” value in experiment [1] (figure legends FIG. 17 and FIG. 18) is on record as “Weight increases”. The “up-regulation of AP activity induced by NR1H3 in the presence of T0901317, under overexpression of DN-RUNX2” value in experiment [2] is on record as “significantly reduces”.
